# Results published in patent EP4417602A1, “SUBSTITUTED PYRAZOLE CARBOXAMIDES, SALTS THEREOF AND THEIR USE AS HERBICIDALLY ACTIVE SUBSTANCES” (Bayer AG, priority 2023, dated 2024).
# How the values were obtained:
# [1] = system: ALOMY; assay: C. Herbicidal pre-emergence action, weed and crop plants (Tables C); format: in vivo, Alopecurus myosuroides
# From the text: (§1) Seeds of mono- and dicotyledonous weed plants and crop plants were sown, in plastic or organic planting pots, in sandy loam and covered with soil. The compounds according to the invention, formulated in the form of wettable powders (WP) or as emulsifiable concentrates (EC), were applied to the surface of the covering soil as aqueous suspension or emulsion, with the addition of 0.5% of an additive, at an application rate of 6001 of water/ha (converted). Following treatment, the pots were placed in a greenhouse and kept under optimum growth conditions for the test plants. The visual grading of the damage to the test plants was carried out after ca. 3 weeks in comparison to untreated controls (herbicidal effect in percent (%): 100% effect = plants have died off, 0% effect = as control plants). Tables C1 to C12 below show the effects of selected compounds of the general formula (I) according to table 1 on various harmful plants and an application rate corresponding to 320 g/ha or below obtained by the experimental procedure mentioned above. Table C1: pre-emergence activity at 320g/ha against KCHSC in %
# [2] = system: LOLRI; assay: as above; format: in vivo, Lolium rigidum; settings: application rate 320 g/ha; Table C7a
# From the text: as §1
# [3] = system: MATIN; assay: as above; format: in vivo, Matricaria inodora; settings: application rate 320 g/ha; Table C8
# From the text: as §1
# [4] = system: ECHCG; assay: E. Herbicidal post-emergence action, weed and crop plants (Tables E); format: in vivo, Echinochloa crus-galli; settings: application rate 320 g/ha, visual assessment after ca. 3 weeks
# From the text: (§2) Seeds of mono- and dicotyledonous weed plants and crop plants were sown, in plastic or organic planting pots, in sandy loam, covered with soil and grown in a greenhouse under controlled growth conditions. 2 to 3 weeks after sowing, the test plants were sprayed in the single-leaf stage. The compounds according to the invention, formulated in form of wettable powders (WP) or as emulsifiable concentrates (EC), were sprayed onto the green plant parts as aqueous suspension or emulsion, with the addition of 0.5% of an additive, at an application rate of 6001 of water/ha (converted). The test plants were placed in the greenhouse for ca. 3 weeks under optimum growth conditions, and then the effect of the preparations was assessed visually in comparison with untreated controls (herbicidal effect in percent (%): 100% effect = plants have died off, 0% effect = as control plants). Tables E1 to E7 below show the effects of selected compounds of the general formula (I) according to table 1 on various harmful plants and an application rate corresponding to 320 g/ha or below obtained by the experimental procedure mentioned above. Table E1: post-emergence activity at 320g/ha against ALOMY in %
# [5] = system: ALOMY; assay: B. Herbicidal post-emergence action on harmful plants (Tables B); format: in vivo, Alopecurus myosuroides
# Procedure: Seeds of mono- and dicotyledonous weed plants were placed in plastic pots in sandy loam soil (doubly sown with in each case one species of mono- or dicotyledonous weed plants per pot), covered with soil and cultivated in a greenhouse under controlled growth conditions. 2 to 3 weeks after sowing, the test plants were treated at the one-leaf stage. The compounds of the invention, formulated in the form of wettable powders (WP) or as emulsion concentrates (EC), were applied onto the green parts of the plants as aqueous suspension or emulsion with addition of 0.5% additive at a water application rate of 600 liters per hectare (converted). After the test plants had been kept in the greenhouse under optimum growth conditions for about 3 weeks, the activity of the preparations was rated visually in comparison to untreated controls. For example, 100% activity = the plants have died, 0% activity = like control plants. Tables B1 to B12, below, show the effects of selected compounds of the general formula (I) according to table 1 on various harmful plants and an application rate corresponding to 1280 g/ha or below obtained by the experimental procedure mentioned above. Table B1a: post-emergence activity at 1280g/ha against ABUTH in %
# [6] = system: DIGSA; assay: as above; format: in vivo, Digitaria sanguinalis
# Outline: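 Activity was scored visually as % damage (100% = dead, 0% = like untreated) about 3 weeks after treatment. Plants at the one-leaf stage, 2-3 weeks old, were sprayed with WP/EC formulations plus 0.5% additive (600 L/ha water, up to 1280 g/ha). Plants were grown in sandy loam in a greenhouse.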
# [7] = system: ZEAMX; assay: D. Pre-emergence effects on crop plants (Tables D); format: in vivo, Zea mays; settings: crop plant
# Outline: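 Pre-emergence soil-surface treatment at 320 g/ha or lower, using wettable-powder or emulsifiable-concentrate formulations in water plus 0.5% additive, over freshly sown seeds in covered sandy loam. Damage was rated visually as percent versus untreated pots (100% = dead plants) after about 3 weeks of greenhouse growth.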
# [8] = system: ALOMY; assay: E. Herbicidal post-emergence action, weed and crop plants (Tables E); format: in vivo, Alopecurus myosuroides; settings: application rate 320 g/ha, visual assessment after ca. 3 weeks
# From the text: as §2
# [9] = system: AMARE; assay: A. Herbicidal pre-emergence action on harmful plants (Tables A); format: in vivo, Amaranthus retroflexus
# Outline: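 Greenhouse pre-emergence test: compound applied to the soil surface at 1280 g/ha or below, and herbicidal effect rated visually at ca. 3 weeks on a 0–100% scale against untreated plants.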
# [10] = system: VERPE; assay: C. Herbicidal pre-emergence action, weed and crop plants (Tables C); format: in vivo, Veronica persica; settings: application rate 320 g/ha; Table C11
# From the text: as §1
# [11] = application rate 320 g/ha, Table C2a
# [12] = application rate 320 g/ha, Table B9b
# [13] = application rate 1280 g/ha, Table B9a
# [14] = application rate 1280 g/ha, Table B12a
# [15] = application rate 80 g/ha, Table D1b
# [16] = application rate 1280 g/ha, visual grading after ca. 3 weeks vs untreated controls, 100% = plants have died off, 0% = as control plants
# [17] = application rate 80 g/ha, Table C2b
# [18] = application rate 320 g/ha, Table A8b
SMILES,"pre-emergence activity against ALOMY [1, 11]",pre-emergence activity against LOLRI [2],pre-emergence activity against MATIN [3],"post-emergence activity against ALOMY [5, 13]","pre-emergence activity against ZEAMX [7, 15]",post-emergence activity against ALOMY in % [8],"pre-emergence activity against ALOMY [1, 17]",pre-emergence activity against VERPE [10],further results
COCc1nn(C)cc1C(=O)N1CCCC1Cc1ccccc1F (racemic) [Example I-002],90%,90%,80%,–,–,–,–,–,post-emergence activity against ECHCG in % [4]: 80%
Cn1cc(C(=O)N2CCCC2Cc2ccccc2F)c(COc2ccccc2)n1 (racemic) [Example I-006],90%,–,–,90%,0%,90%,–,–,"post-emergence activity against ALOMY [5, 12]: 90%; post-emergence activity against DIGSA [6, 14]: 90%"
Cn1cc(C(=O)N2CCCC2Cc2ccc(F)cc2F)c(COc2ccccc2)n1 (racemic) [Example I-008],100%,–,–,90%,10%,–,–,–,"pre-emergence activity against ZEAMX ([7]; application rate 320 g/ha, Table D1a): 20%"
COCc1nn2c(c1C(=O)N1CCCC1Cc1ccccc1F)CCC2 (racemic) [Example I-022],–,100%,–,–,0%,–,–,–,–
C=C(c1ccccc1F)C1CCCN1C(=O)c1cn(C)nc1COC (racemic) [Example I-023],100%,100%,80%,–,0%,–,–,–,"pre-emergence activity against AMARE [9, 16]: 90%; post-emergence activity against DIGSA [6, 14]: 90%"
COCc1nn(C(=O)OC(C)(C)C)cc1C(=O)N1CCCC1Cc1ccccc1F (racemic) [Example I-040],80%,100%,80%,–,20%,–,–,–,–
CNC(=O)n1cc(C(=O)N2CCCC2Cc2ccccc2F)c(COC)n1 (racemic) [Example I-051],90%,90%,–,–,–,80%,80%,–,–
COCc1c(C(=O)N2CCCC2Cc2ccccc2Cl)cnn1C (racemic) [Example I-170],90%,90%,80%,90%,–,80%,90%,80%,post-emergence activity against ECHCG in % [4]: 80%
"COCc1nn(C)cc1C(=O)N1CCCC1Cc1ccccc1F (single isomer, unassigned) [Example I-003]",100%,90%,80%,100%,–,80%,90%,80%,"pre-emergence activity against AMARE [9, 18]: 90%; pre-emergence activity against AMARE [9, 16]: 90%; post-emergence activity against ALOMY ([5]; application rate 80 g/ha, Table B9c): 100%; post-emergence activity against ALOMY [5, 12]: 100%; post-emergence activity against DIGSA ([6]; application rate 80 g/ha, Table B12c): 100%; post-emergence activity against DIGSA ([6]; application rate 320 g/ha, Table B12b): 100%; post-emergence activity against DIGSA [6, 14]: 100%; post-emergence activity against ECHCG in % [4]: 80%"
"COCc1nn(C)cc1C(=O)N1CCCC1C(O)c1ccccc1F (single isomer, unassigned) [Example I-053]",90%,90%,80%,–,–,–,80%,80%,–
"COCc1c(C(=O)N2CCCC2Cc2ccccc2F)cnn1C (single isomer, unassigned) [Example I-157]",90%,90%,–,–,–,80%,–,80%,"pre-emergence activity against AMARE [9, 18]: 90%; pre-emergence activity against AMARE [9, 16]: 90%"
